Data from patent US9617602B2, “Methods and compositions for determining resistance to androgen receptor therapy” (Aragon Pharmaceuticals, Inc., priority 2012, dated 2017).

Legend:
Type in all cases: cell-based, human
[1] = test system: LNCaP/AR(cs) cells; assay: Endogenous gene transcriptional assay (real-time PCR of androgen responsive genes);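 as to ORM1 expression, agonist transcription: LNCaP/AR(cs) cells without added R1881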;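 as to PLD1 expression, agonist transcription: LNCaP/AR(cs) cells without added R1881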;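 as to PSA expression, agonist transcription: LNCaP/AR(cs) cells without added R1881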;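 as to SLUG expression, agonist transcription: LNCaP/AR(cs) cells without added R1881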;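 as to TMPRSS2 expression, agonist transcription: LNCaP/AR(cs) cells without added R1881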
Description: (§1) Total RNA was isolated using the Aurum™ total RNA isolation kit (BIO-RAD, Hercules, Calif.). RNA (1 μg) was reverse transcribed using the iScript cDNA synthesis kit (BIO-RAD, Hercules, Calif.) to produce cDNA. Real-time PCR was performed using the Applied Biosystems 7900HT instrument and SYBR Green PCR Master Mix (Applied Biosystems, Foster City, Calif.). PCR reactions were performed in 6 μL according to the manufacturer's protocol and a thermocycle protocol of 95° C. for 10 minutes followed by 40 cycles of 95° C. for 15 seconds and 58° C. for 1 minute. Androgen responsive gene (PSA, SLUG, TMPRSS2, STEAP4, FKBP5, ORM1, NOV, FASN, NKX3.1, AMIGO2, BDNF, CAMK2N1, HPGD, NCAPD3, PLD1) expression was normalized to GAPDH expression and expressed relative to vehicle treatment of the parental cell line.
(§2) Gene expression was normalized to GAPDH as described above.

[2] = test system: LNCaP ARN-509r2 cells; assay: as above; conditions: 1 nM R1881 or 30 μM compound, vehicle=1.00
Description: as §1, §2

[3] = test system: Class 1 ARN-509- and MDV3100-resistant cell lines; assay: Proliferation assay (CellTiter-Glo), agonist and antagonist mode

With `CNC(=O)c1ccc(N2C(=S)N(c3ccc(C#N)c(C(F)(F)F)c3)C(=O)C2(C)C)cc1F` [Enzalutamide, enzalutamide] the “FASN expression, agonist transcription” value ([1]; −R1881, 0.3 μM) was 0.47, the “FKBP5 expression, agonist transcription” value ([1]; −R1881, 0.3 μM) was 0.91 and the “HPGD expression, agonist transcription” value ([1]; −R1881, 0.3 μM) was 0.74. The “NCAPD3 expression, agonist transcription” value ([1]; −R1881, 0.3 μM) was 0.66, the “NKX3.1 expression, agonist transcription” value ([1]; −R1881, 0.3 μM) was 0.71 and the “NOV expression, agonist transcription” value ([1]; −R1881, 0.3 μM) was 1.12. The “ORM1 expression, agonist transcription” value ([1]; −R1881, 0.3 μM) was 0.92, the “PLD1 expression, agonist transcription” value ([1]; −R1881, 0.3 μM) was 0.77 and the “PSA expression, agonist transcription” value ([1]; −R1881, 0.3 μM) was 0.42. For the same compound, the “SLUG expression, agonist transcription” value ([1]; −R1881, 0.3 μM) was 0.53, the “STEAP4 expression, agonist transcription” value ([1]; −R1881, 0.3 μM) was 0.75 and the “TMPRSS2 expression, agonist transcription” value (from here on “TMPRSS2 expression”) ([1]; −R1881, 0.3 μM) was 0.75. For the same compound, the “AMIGO2 expression, agonist transcription” value ([1]; −R1881, 1 μM) was 0.61, the “BDNF expression, agonist transcription” value ([1]; −R1881, 1 μM) was 0.92 and the “CAM2KN1 expression, agonist transcription” value (“CAM2KN1 expression” for short) ([1]; −R1881, 1 μM) was 0.70. The “FASN expression, agonist transcription” value ([1]; −R1881, 1 μM) was 0.32, the “FKBP5 expression, agonist transcription” value ([1]; −R1881, 1 μM) was 0.62 and the “HPGD expression, agonist transcription” value ([1]; −R1881, 1 μM) was 0.57. The “NCAPD3 expression, agonist transcription” value ([1]; −R1881, 1 μM) was 0.57, the “NKX3.1 expression, agonist transcription” value ([1]; −R1881, 1 μM) was 0.52 and the “NOV expression, agonist transcription” value ([1]; −R1881, 1 μM) was 0.91. For the same compound, the “ORM1 expression, agonist transcription” value ([1]; −R1881, 1 μM) was 0.90, the “PLD1 expression, agonist transcription” value ([1]; −R1881, 1 μM) was 0.62 and the “PSA expression, agonist transcription” value ([1]; −R1881, 1 μM) was 0.32. For the same compound, the “SLUG expression, agonist transcription” value ([1]; −R1881, 1 μM) was 0.55, the “STEAP4 expression, agonist transcription” value ([1]; −R1881, 1 μM) was 0.73 and the “TMPRSS2 expression” value ([1]; −R1881, 1 μM) was 0.53. The “AMIGO2 expression, agonist transcription” value ([1]; −R1881, 3 μM) was 0.62, the “BDNF expression, agonist transcription” value ([1]; −R1881, 3 μM) was 0.88 and the “CAM2KN1 expression” value ([1]; −R1881, 3 μM) was 0.71. For the same compound, the “FASN expression, agonist transcription” value ([1]; −R1881, 3 μM) was 0.29, the “FKBP5 expression, agonist transcription” value ([1]; −R1881, 3 μM) was 0.75 and the “HPGD expression, agonist transcription” value ([1]; −R1881, 3 μM) was 0.61. The “NCAPD3 expression, agonist transcription” value ([1]; −R1881, 3 μM) was 0.47, the “NKX3.1 expression, agonist transcription” value ([1]; −R1881, 3 μM) was 0.51 and the “NOV expression, agonist transcription” value ([1]; −R1881, 3 μM) was 0.80. The “ORM1 expression, agonist transcription” value ([1]; −R1881, 3 μM) was 1.06, the “PLD1 expression, agonist transcription” value ([1]; −R1881, 3 μM) was 0.63 and the “PSA expression, agonist transcription” value ([1]; −R1881, 3 μM) was 0.38. The “SLUG expression, agonist transcription” value ([1]; −R1881, 3 μM) was 0.31, the “STEAP4 expression, agonist transcription” value ([1]; −R1881, 3 μM) was 0.52 and the “TMPRSS2 expression” value ([1]; −R1881, 3 μM) was 0.63. For the same compound, the “AMIGO2 expression, agonist transcription” value ([1]; −R1881, 10 μM) was 0.66, the “BDNF expression, agonist transcription” value ([1]; −R1881, 10 μM) was 0.95 and the “CAM2KN1 expression” value ([1]; −R1881, 10 μM) was 0.64. For the same compound, the “FASN expression, agonist transcription” value ([1]; −R1881, 10 μM) was 0.31, the “FKBP5 expression, agonist transcription” value ([1]; −R1881, 10 μM) was 0.61 and the “HPGD expression, agonist transcription” value ([1]; −R1881, 10 μM) was 0.63. The “NCAPD3 expression, agonist transcription” value ([1]; −R1881, 10 μM) was 0.56, the “NKX3.1 expression, agonist transcription” value ([1]; −R1881, 10 μM) was 0.86 and the “ORM1 expression, agonist transcription” value ([1]; −R1881, 10 μM) was 0.71. The “PLD1 expression, agonist transcription” value ([1]; −R1881, 10 μM) was 0.56, the “PSA expression, agonist transcription” value ([1]; −R1881, 10 μM) was 0.74 and the “SLUG expression, agonist transcription” value ([1]; −R1881, 10 μM) was 0.51. The “STEAP4 expression, agonist transcription” value ([1]; −R1881, 10 μM) was 1.16, the “TMPRSS2 expression” value ([1]; −R1881, 10 μM) was 0.89 and the “CAM2KN1 expression” value ([1]; −R1881, 30 μM) was 0.64. For the same compound, the “FKBP5 expression, agonist transcription” value ([1]; −R1881, 30 μM) was 0.85, the “NCAPD3 expression, agonist transcription” value ([1]; −R1881, 30 μM) was 0.79 and the “NKX3.1 expression, agonist transcription” value ([1]; −R1881, 30 μM) was 1.63. The “ORM1 expression, agonist transcription” value ([1]; −R1881, 30 μM) was 2.02, the “PLD1 expression, agonist transcription” value ([1]; −R1881, 30 μM) was 0.56 and the “PSA expression, agonist transcription” value ([1]; −R1881, 30 μM) was 1.60. For the same compound, the “SLUG expression, agonist transcription” value ([1]; −R1881, 30 μM) was 0.91, the “TMPRSS2 expression” value ([1]; −R1881, 30 μM) was 1.45 and the AMIGO2 gene expression [2] was 0.63. For the same compound, the BDNF gene expression [2] was 0.77, the CAM2KN1 gene expression [2] was 0.38 and the FASN gene expression [2] was 0.93. It also gave an FKBP5 gene expression [2] of 3.41, an HPGD gene expression [2] of 4.56 and an NCAPD3 gene expression [2] of 1.35. It also gave an NKX3.1 gene expression [2] of 6.28, an NOV gene expression [2] of 0.71 and an ORM1 gene expression [2] of 23.75. It also gave a PLD1 gene expression [2] of 0.29, a PSA gene expression [2] of 2.48 and an SLUG gene expression [2] of 9.58. The TMPRSS2 gene expression [2] was 4.86, the “Effect on growth inhibitory activity of R1881 in Class 1 cells” value [3] was “antagonized” and the “Ligand independent growth of Class 1 cells in presence of compound” value ([3]; absence of added androgens) was “unaltered”.
